Results taken from US4061737A, “Method for stimulating release of prolactin” (American Home Products Corporation, priority 1976, dated 1977).

Experiments:
mouse vas deferens = conditions: cited from earlier work
opiate receptor sites = conditions: cited from earlier work
[1] = test system: Male Charles River CD rats; assay: Prolactin plasma levels in rats 15 minutes after enkephalin injection (radioimmunoassay); type: in vivo, rat; conditions: for Change in prolactin levels upon injection (in words): 5 mg/kg., subcutaneous or intravenous
Protocol: Male Charles River CD rats were injected with the enkephalin (in saline) or saline alone either subcutaneously or intravenously via the femoral vein. Fifteen minutes later the animals were decapitated and blood collected (12 mg. versene and 6000 units of Trasylol added per tube). Each plasma sample was assayed for prolactin in quadruplicate by specific double antibody radioimmunoassays, using NIAMDD reagents and the procedure of Neill and Reichert, Endocrinology, 88, 548 (1971).

guinea pig ileum = conditions: cited from earlier work
rat pituitary cells = assay: Prolactin release in monolayer cultures of rat pituitary cells; type: cell-based; conditions: for Prolactin release versus control (in words): all levels from 5 ng/ml to 50 μg/ml; for Prolactin Release (mean ± SEM): 3 hours at 37° C., control 197 ± 13
Protocol: Monolayer cultures of enzymatically dispersed pituitary cells were prepared from male rats, using Eagle's minimal essential medium for growth. After incubation in triplicate dishes for 3 hours at 37° C. in 95% air: 5% CO2, the supernatant from each dish was assayed for prolactin in duplicate.

[2] = in vivo; cited from earlier work
[3] = Experiment 2, 5mg/kg. SC, 15 minutes after injection, control 40 ± 3

Row | Structure (SMILES) | Contractions of mouse vas deferens (in words) (mouse vas deferens) | Stereospecific binding of 3H-naloxone to guinea pig brain (in words) (opiate receptor sites) | Change in prolactin levels upon injection (in words) [1] | Prolactin plasma level (mean ± SEM) ([1]; Experiment 1, 5mg/kg. SC, 15 minutes after injection, control 29 ± 3) | Prolactin plasma level (mean ± SEM) [1, 3] | Prolactin plasma level (mean ± SEM) ([1]; Experiment 4, 5mg/kg. IV, 15 minutes after injection, control 43 ± 7) | Prolactin plasma level (mean ± SEM) ([1]; Experiment 5, 5mg/kg. IV, 15 minutes after injection, control 31 ± 3) | Prolactin plasma level (mean ± SEM) ([1]; Experiment 6, 5mg/kg. IV, 15 minutes after injection, control 47 ± 5) | Prolactin plasma level (mean ± SEM) ([1]; Experiment 8, 5mg/kg. IV, 15 minutes after injection, control 63 ± 10) | Contractions of guinea pig ileum (in words) (guinea pig ileum) | Prolactin release versus control (in words) (rat pituitary cells) | Prolactin Release (mean ± SEM) (rat pituitary cells; enkephalin 5 ng/ml) | Prolactin Release (mean ± SEM) (rat pituitary cells; enkephalin 50 ng/ml) | Prolactin Release (mean ± SEM) (rat pituitary cells; enkephalin 500 ng/ml) | Prolactin Release (mean ± SEM) (rat pituitary cells; enkephalin 5 μg/ml) | Prolactin Release (mean ± SEM) (rat pituitary cells; enkephalin 50 μg/ml) | Prolactin levels (in words) [2] | Prolactin plasma level (mean ± SEM) ([1]; Experiment 3, 5mg/kg. IV, 15 minutes after injection, control 20 ± 1) | Prolactin plasma level (mean ± SEM) ([1]; rat, in vivo) | Prolactin release compared with leucine-enkephalin (in words) (rat pituitary cells; difference statistically significant at 50 μg/ml and 500 ng/ml)
1 | CC(C)C[C@H](NC(=O)[C@H](Cc1ccccc1)NC(=O)CNC(=O)CNC(=O)[C@@H](N)Cc1ccc(O)cc1)C(=O)O [Leu-Enkephalin, H-Tyr-Gly-Gly-Phe-Leu-OH] | inhibit | inhibit | more variable | 40 ± 6 ng/mL | 40 ± 3 ng/mL | 29 ± 5 ng/mL | 55 ± 5 ng/mL | 59 ± 11 ng/mL | 61 ± 10 ng/mL | inhibit | significantly increased | 247 ± 7 ng/mL | 254 ± 14 ng/mL | 253 ± 18 ng/mL | 244 ± 10 ng/mL | 260 ± 15 ng/mL | – | – | – | –
2 | CN1CC[C@]23c4c5ccc(O)c4O[C@H]2[C@@H](O)C=C[C@H]3[C@H]1C5 [morphine, reference compound] | also elicited by morphine | – | – | – | – | – | – | – | – | also elicited by morphine | – | – | – | – | – | – | can raise prolactin levels | – | – | –
3 | CSCC[C@H](NC(=O)[C@H](Cc1ccccc1)NC(=O)CNC(=O)CNC(=O)[C@@H](N)Cc1ccc(O)cc1)C(=O)O [Met-Enkephalin, H-Tyr-Gly-Gly-Phe-Met-OH] | inhibit | inhibit | consistent, statistically significant increase | – | 49 ± 3 ng/mL | – | – | – | – | inhibit | significantly increased | 261 ± 15 ng/mL | 257 ± 14 ng/mL | 305 ± 14 ng/mL | 255 ± 10 ng/mL | 307 ± 8 ng/mL | – | 24 ± 1 ng/mL | 43 ± 3 | greater release of prolactin than leucine-enkephalin
